Converted amounts (≈) assume the structure as drawn.
System: E. coli
Assay: Bacterial susceptibility testing, MIC by broth microdilution (CLSI)
Settings: for MIC: Escherichia coli, read-out: E. coli MIC, broth microdilution, 35° C., 18-24 h; for E. coli MIC: broth microdilution, 35° C., 18-24 h
Protocol: Minimal inhibitory concentrations (MIC) were determined by the broth microdilution method in accordance with the Clinical and Laboratory Standards Institute (CLSI) guidelines. In brief, organism suspensions were adjusted to a 0.5 McFarland standard to yield a final inoculum between 3×10^3 and 7×10^5 colony-forming units (CFU)/mL. Drug dilutions and inocula were made in sterile, cation adjusted Mueller-Hinton Broth (Beckton Dickinson). An inoculum volume of 100 μL was added to wells containing 100 μL of broth with 2-fold serial dilutions of drug.

| Compound | MIC | E. coli MIC |
| --- | --- | --- |
| COC1CN(Cc2ccc(C#Cc3ccc([C@](C)(CNC4CC4)Cc4nc[nH]c(=O)c4O)cc3)cc2)C1 (single isomer, unassigned) [Compound 227] | 1 to 8 µg/mL (≈ 2.01 to 16 µM) | – |
| O=c1[nH]cnc(CC(CO)c2ccc(C#Cc3ccc(CNC4CCS(=O)(=O)C4)cc3)cc2)c1O (stereo not shown) [Compound 38] | < 1 µg/mL | – |
| C[C@H](CF)NCC(Cc1nc[nH]c(=O)c1O)c1ccc(C#Cc2ccc(CN3CC(C#N)C3)cc2)cc1 (stereo partly shown) [Compound 83] | < 1 µg/mL | – |
| O=c1[nH]cnc(CC(CNCCF)c2ccc(C#Cc3ccc(CN4CCOCC4)cc3)cc2)c1O (stereo not shown) [Compound 6] | 1 to 8 µg/mL (≈ 2.04 to 16.3 µM) | – |
| O=c1[nH]cnc(CC(CN2CCC2)c2ccc(C#Cc3ccc(CN4CCOCC4)cc3)cc2)c1O (stereo not shown) [Compound 177] | < 1 µg/mL | – |
| CC(C)(O)C(Cc1nc[nH]c(=O)c1O)c1ccc(C#Cc2ccc(CN3CCOCC3)cc2)cc1 (stereo not shown) [Compound 1] | 1 to 8 µg/mL (≈ 2.11 to 16.9 µM) | – |
| CC(O)C(Cc1nc[nH]c(=O)c1O)c1ccc(C#Cc2ccc(CN3CCOCC3)cc2)cc1 (stereo not shown) [Compound 12] | 1 to 8 µg/mL (≈ 2.18 to 17.4 µM) | – |
| COC[C@@H](Cc1nc[nH]c(=O)c1O)c1ccc(C#Cc2ccc(CN[C@H]3CCNC3)cc2)cc1 (single isomer, unassigned) [Compound 287] | 1 to 8 µg/mL (≈ 2.18 to 17.4 µM) | – |
| COC[C@@H](Cc1nc[nH]c(=O)c1O)c1ccc(C#Cc2ccc(CN[C@H]3CCOC3)cc2)cc1 (single isomer, unassigned) [Compound 285] | < 1 µg/mL | – |
| O=c1[nH]cnc(CC(CNCCO)c2ccc(C#Cc3ccc(CN4CCOCC4)cc3)cc2)c1O (stereo not shown) [Compound 129] | 1 to 8 µg/mL (≈ 2.05 to 16.4 µM) | – |
| O=c1[nH]cnc(CC(CO)c2ccc(C#Cc3ccc(CN[C@H]4CCOC4)cc3)cc2)c1O (single isomer, unassigned) [Compound 10] | – | A (A: ≤1 μg/mL) |
| CO[C@@H]1CCN(Cc2ccc(C#Cc3ccc(C(CN[C@@H](C)CF)Cc4nc[nH]c(=O)c4O)cc3)cc2)C1 (single isomer, unassigned) [Compound 87] | – | B (B: >1 μg/mL to ≤8.0 μg/mL) |
| COC1CN(Cc2ccc(C#Cc3ccc(C(Cc4nc[nH]c(=O)c4O)CN4C(=O)OC[C@@H]4C)cc3)cc2)C1 (stereo partly shown) [Compound 121] | 1 to 8 µg/mL (≈ 1.89 to 15.1 µM) | – |
| O=c1[nH]cnc(CC(CO)c2ccc(C#Cc3ccc(CNC4CCNCC4)cc3)cc2)c1O (stereo not shown) [Compound 259] | 1 to 8 µg/mL (≈ 2.18 to 17.4 µM) | – |
| C[C@@H](CO)NCC(Cc1nc[nH]c(=O)c1O)c1ccc(C#Cc2ccc(CN3CCOCC3)cc2)cc1 (single isomer, unassigned) [Compound 168] | – | B (B: >1 μg/mL to ≤8.0 μg/mL) |
| N#C[C@@H]1CCN(Cc2ccc(C#Cc3ccc([C@@H](CNCC(F)F)Cc4nc[nH]c(=O)c4O)c(F)c3)cc2)C1 (single isomer, unassigned) [Compound 281] | < 1 µg/mL | – |
| C[C@@H](CF)NCC(Cc1nc[nH]c(=O)c1O)c1ccc(C#Cc2ccc(CN3CC4(COC4)C3)cc2)cc1 (mixture of isomers) [Compound 124] | 1 to 8 µg/mL | – |
| CC(CF)NC(Cc1nc[nH]c(=O)c1O)c1ccc(C#Cc2ccc(CN3CCOCC3)cc2)cc1 (stereo not shown) [Compound 141] | < 1 µg/mL | – |
| COC1CN(Cc2ccc(C#Cc3ccc([C@H](Cc4nc[nH]c(=O)c4O)CN(C)C4CC4)cc3)cc2)C1 (single isomer, unassigned) [Compound 220] | < 1 µg/mL | – |
| CO[C@@H]1CCN(Cc2ccc(C#Cc3ccc(C(CN[C@@H](C)CF)Cc4nc[nH]c(=O)c4O)cc3)cc2)C1 (mixture of isomers) [Compound 86] | < 1 µg/mL | – |
| CS(=O)(=O)N1CC[C@@H](NCc2ccc(C#Cc3ccc(C(CO)Cc4nc[nH]c(=O)c4O)cc3)cc2)C1 (single isomer, unassigned) [Compound 254] | < 1 µg/mL | – |

| Compound | MIC | E. coli MIC |
| --- | --- | --- |
| COC1CN(Cc2ccc(C#Cc3ccc(C(Cc4nc[nH]c(=O)c4O)CN4CC(OC)C4)cc3)cc2)C1 (stereo not shown) [Compound 176] | – | A (A: ≤1 μg/mL) |
| NCC(=O)N1CCC(C#Cc2ccc(C(CO)Cc3nc[nH]c(=O)c3O)cc2)CC1 (stereo not shown) [Compound 263] | > 32 µg/mL | – |
| NC[C@H]1CCCN1Cc1ccc(C#Cc2ccc(C(CO)Cc3nc[nH]c(=O)c3O)cc2)cc1 (mixture of isomers) [Compound 148] | 1 to 8 µg/mL | – |
| CS(=O)(=O)NC[C@@H](Cc1nc[nH]c(=O)c1O)c1ccc(C#Cc2ccc(CN3CCOCC3)cc2)cc1 (single isomer, unassigned) [Compound 304] | < 1 µg/mL | – |
| CS(=O)(=O)CCNCC(Cc1nc[nH]c(=O)c1O)c1ccc(C#Cc2ccc(CN3CCOCC3)cc2)cc1 (stereo not shown) [Compound 128] | 1 to 8 µg/mL (≈ 1.82 to 14.5 µM) | – |
| CC(CO)(Cc1nc[nH]c(=O)c1O)c1ccc(C#Cc2ccc(CN3CCOCC3)cc2)cc1 (stereo not shown) [Compound 31] | < 1 µg/mL | – |
| O=c1[nH]cnc(CC(NCCCF)c2ccc(C#Cc3ccc(CN4CCOCC4)cc3)cc2)c1O (stereo not shown) [Compound 139] | < 1 µg/mL | – |
| O=c1[nH]cnc(C[C@H](CNCC(F)F)c2ccc(C#Cc3ccc(CN4CCOCC4)cc3)cc2F)c1O (single isomer, unassigned) [Compound 283] | < 1 µg/mL | – |
| C[C@H](CC#N)NCC(Cc1ncnc(O)c1O)c1ccc(C#Cc2ccc(CN3CCOCC3)cc2)cc1 (single isomer, unassigned) [Compound 100] | < 1 µg/mL | – |
| COC1CN(Cc2ccc(C#Cc3ccc(C(CNC4CC4)Cc4nc[nH]c(=O)c4O)cc3)cc2)C1 (stereo not shown) [Compound 223] | < 1 µg/mL | – |
| O=c1[nH]cnc(CC(CN[C@@H]2CCOC2)c2ccc(C#Cc3ccc(CN4CCOCC4)cc3)cc2)c1O (single isomer, unassigned) [Compound 162] | 1 to 8 µg/mL (≈ 1.94 to 15.5 µM) | – |
| O=C(CO)N1CCC(NCc2ccc(C#Cc3ccc(C(CO)Cc4nc[nH]c(=O)c4O)cc3)cc2)CC1 (stereo not shown) [Compound 157] | 1 to 8 µg/mL (≈ 1.94 to 15.5 µM) | – |
| C[C@H](CF)NCC(Cc1nc[nH]c(=O)c1O)c1ccc(C#Cc2ccc(CN3CCOCC3)cc2)cc1F (single isomer, unassigned) [Compound 280] | < 1 µg/mL | – |
| C[C@@H](CF)NCC(Cc1nc[nH]c(=O)c1O)c1ccc(C#Cc2ccc(CN[C@H]3CCOC3)cc2)cc1 (mixture of isomers) [Compound 110] | < 1 µg/mL | – |
| O=C(CO)N(Cc1ccc(C#Cc2ccc(C(CO)Cc3nc[nH]c(=O)c3O)cc2)cc1)[C@@H]1CCNC1 (mixture of isomers) [Compound 154] | 8 to 32 µg/mL | – |
| O=c1[nH]cnc(CC(CN2CC(O)C2)c2ccc(C#Cc3ccc(CN4CCOCC4)cc3)cc2F)c1O (stereo not shown) [Compound 231] | < 1 µg/mL | – |
| O=C(NCC(F)F)C(Cc1nc[nH]c(=O)c1O)N1Cc2cc(C#Cc3ccc(CN4CCOCC4)cc3)cn2C1=O (stereo not shown) [Compound 191] | < 1 µg/mL | – |
| CC(=O)NC[C@@H](Cc1nc[nH]c(=O)c1O)c1ccc(C#Cc2ccc(CN3CCOCC3)cc2)cc1 (single isomer, unassigned) [Compound 303] | < 1 µg/mL | – |
| CO[C@@H]1CCN(Cc2ccc(C#Cc3ccc(C(CNCC(C)F)Cc4nc[nH]c(=O)c4O)cc3)cc2)C1 (mixture of isomers) [Compound 135] | – | B (B: >1 μg/mL to ≤8.0 μg/mL) |
| O=c1[nH]cnc(CC(CN[C@H]2C[C@H](F)C2)c2ccc(C#Cc3ccc(CN4CCOCC4)cc3)cc2)c1O (stereo partly shown) [Compound 79] | – | A (A: ≤1 μg/mL) |
| O=c1[nH]cnc(CC(CN[C@H]2CCOC2)c2ccc(C#Cc3ccc(CN4CCOCC4)cc3)cc2)c1O (mixture of isomers) [Compound 166] | < 1 µg/mL | – |

| Compound | MIC | E. coli MIC |
| --- | --- | --- |
| O=c1[nH]cnc(CC(CNCCF)c2ccc(C#Cc3cnn(C4CCOCC4)c3)cc2)c1O (stereo not shown) [Compound 205] | 1 to 8 µg/mL (≈ 2.15 to 17.2 µM) | – |
| COCC(Cc1nc[nH]c(=O)c1O)c1ccc(C#Cc2ccc(CN3CCOCC3)cc2)cc1 (stereo not shown) [Compound 190] | < 1 µg/mL | – |
| CN(C[C@@H](Cc1nc[nH]c(=O)c1O)c1ccc(C#Cc2ccc(CN3CCOCC3)cc2)cc1)C1CC1 (single isomer, unassigned) [Compound 302] | < 1 µg/mL | – |
| O=C(N[C@@H]1CCN(Cc2ccc(C#Cc3ccc(C(CO)Cc4nc[nH]c(=O)c4O)cc3)cc2)C1)C1CC1 (mixture of isomers) [Compound 256] | < 1 µg/mL | – |
| C[C@@H](CF)NCC(Cc1nc[nH]c(=O)c1O)c1ccc(C#Cc2ccc(CN3CC(C#N)C3)cc2)cc1 (stereo partly shown) [Compound 81] | < 1 µg/mL | – |
| N#C[C@H]1CCN(Cc2ccc(C#Cc3ccc(C(CNCC(F)F)Cc4nc[nH]c(=O)c4O)cc3)cc2)C1 (mixture of isomers) [Compound 123] | < 1 µg/mL | – |
| COC1CN(Cc2ccc(C#Cc3ccc([C@H](Cc4nc[nH]c(=O)c4O)CN4CC(C#N)C4)cc3)cc2)C1 (single isomer, unassigned) [Compound 218] | < 1 µg/mL | – |
| C[C@H](CO)NCC(Cc1nc[nH]c(=O)c1O)c1ccc(C#Cc2ccc(CN3CCOCC3)cc2)cc1 (single isomer, unassigned) [Compound 171] | – | A (A: ≤1 μg/mL) |
| NCc1ccc(C#Cc2ccc(C(CO)Cc3nc[nH]c(=O)c3O)cc2)cc1 (stereo not shown) [Compound 63] | 1 to 8 µg/mL (≈ 2.66 to 21.3 µM) | – |
| COC(=O)C(Cc1nc[nH]c(=O)c1O)N1Cc2cc(C#Cc3ccc(CN4CCOCC4)cc3)cn2C1=O (stereo not shown) [Compound 192] | 1 to 8 µg/mL (≈ 1.93 to 15.5 µM) | – |
| CC(F)CNCC(Cc1nc[nH]c(=O)c1O)c1ccc(C#Cc2ccc(CN3CCOCC3)cc2)cc1 (stereo not shown) [Compound 74] | < 1 µg/mL | – |
| C[C@@H](O)CNC[C@@H](Cc1nc[nH]c(=O)c1O)c1ccc(C#Cc2ccc(CN3CCOCC3)cc2)cc1 (single isomer, unassigned) [Compound 248] | < 1 µg/mL | – |
| O=c1[nH]cnc(C[C@@H](CN2CC(F)C2)c2ccc(C#Cc3ccc(CN4CCOCC4)cc3)cc2)c1O (single isomer, unassigned) [Compound 215] | < 1 µg/mL | – |
| O=c1[nH]cnc(C[C@H](CNCCCF)c2ccc(C#Cc3ccc(CN4CCOCC4)cc3)cc2F)c1O (single isomer, unassigned) [Compound 237] | < 1 µg/mL | – |
| O=C(CO)N[C@@H]1CCN(Cc2ccc(C#Cc3ccc(C(CO)Cc4nc[nH]c(=O)c4O)cc3)cc2)C1 (mixture of isomers) [Compound 257] | 1 to 8 µg/mL | – |
| CN1CCN(C(=O)c2ccc(C#Cc3ccc(C(CO)Cc4nc[nH]c(=O)c4O)cc3)cc2)CC1 (stereo not shown) [Compound 59] | 1 to 8 µg/mL (≈ 2.12 to 16.9 µM) | – |
| O=C(CO)N1CCN(Cc2ccc(C#Cc3ccc(C(CO)Cc4nc[nH]c(=O)c4O)cc3)cc2)CC1 (stereo not shown) [Compound 152] | < 1 µg/mL | – |
| O=c1[nH]cnc(CC(NCCCCl)c2ccc(C#Cc3ccc(CN4CCOCC4)cc3)cc2)c1O (stereo not shown) [Compound 172] | < 1 µg/mL | – |
| C[C@@H](CC#N)NCC(Cc1nc[nH]c(=O)c1O)c1ccc(C#Cc2ccc(CN3CCOCC3)cc2)cc1 (single isomer, unassigned) [Compound 98] | < 1 µg/mL | – |
